Data as given in US11007269B2, “P53 degradation inducing molecule and pharmaceutical composition” (Tokyo University of Science Foundation, priority 2016, dated 2021).
Non-standard residues stand in square brackets, D forms with d. Residues, ends and D or L forms follow the SMILES beside them. Nle = CCCC[C@H](N)C(=O)O

Assays:
[1] = tested on: senescence-associated acidic β-galactosidase (SA-β-gal) inducing TIG3 cells; assay: FACS analysis of SA-β-gal in doxorubicin senescence-induced TIG3 cells (anti-aging action); assay type: cell-based, human; settings: doxorubicin 150 nM alone vs no doxorubicin
Procedure: In Example 5, an anti-aging action in a senescence-associated acidic β-galactosidase (SA-β-gal) inducing TIG3 cells (human embryonic fibroblast) in which TIBC-CANDDY_MLN had been added was evaluated by FACS analysis.
TIG3 cells as normal cells were seeded in a 24-well plate at a cell density of 8×10^4 cells/well, and then cultured under conditions of 37° C. and 5 vol % CO2 for 16 hours.
After 16 hours from cell seeding, doxorubicin was added to each well at 150 nM/well to induce cellular senescence. As a medium, a serum-free medium (37° C.) in which 1 mass % L-glutamine solution (Sigma-Aldrich) was added to D-MEM (high D-glucose, phenol red, sodium pyruvate (Wako Pure Chemical Industries, Ltd.)) was used. It is noted that the L-glutamine solution was added immediately before use. After the addition of doxorubicin, culture was performed under conditions of 37° C. and 5 vol % CO2 for 24 hours.
After 24 hours from induction of senescence, TIBC-CANDDY_MLN was added to TIG3 cells as follows. As a medium, a serum-free medium (37° C.) in which 1 mass % L-glutamine solution (Sigma-Aldrich) was added to D-MEM (high D-glucose, phenol red, sodium pyruvate (Wako Pure Chemical Industries, Ltd.)) was used. It is noted that the L-glutamine solution was added immediately before use. A DMSO solution containing TIBC-CANDDY_MLN was mixed with the medium so that the concentration of DMSO was 1 vol %, and added to each well at 500 μL/well, and cultured under conditions of 37° C. and 5 vol % CO2 for 48 hours. As a control, DMSO was used.
For quantification of SA-β-gal as a senescence marker, a commercially available kit (Cellular Senescence Detection Kit-SPiDER-βGal (DOJINDO LABORATORIES)) was used. […]
A BD FACSCanto™ II (BD Biosciences) was used for flow cytometry to detect SA-β-gal labeled with FITC. […] A histogram of the FITC strength was created by an analysis software FlowJo™ (TOMY Digital Biology Co., Ltd.), and the senescence suppressing action by TIBC-CANDDY_MLN was evaluated from a shift in the histogram.

[2] = target: T1, catalytic subunit β5 of the proteasome (chymotrypsin-like activity) (Homo sapiens, UniProt P28074); assay: 20S Proteasome StressXpress Assay Kit, AMC substrate, β5; assay type: biochemical
T1 construct: purchased Bioscience
Procedure: (§1) In Reference Example 2, the proteasome inhibitory activity of TMP-CANDDY_DMT and the affinity of TMP-CANDDY_DMT with a proteasome were evaluated. As a positive control, MG-132 as a proteasome inhibitor was used.
(§2) For evaluation, 20S Proteasome StressXpress™ Assay Kit Gold (Bioscience) was used. AMC was measured by using Multi-Detection Microplate Reader (Synergy HT, BIO-TEK). The AMC was produced by cleaving the C-terminus of an AMC-binding proteasome fluorescence substrate specific to β subunits of a 20S proteasome, including β5 (chymotrypsin-like activity), β2 (trypsin-like activity), and β1 (caspase-like activity). The measuring wavelengths were 360 nm for excitation light (Ex.), and 460 nm for fluorescence (Em.).
(§3) In Reference Example 6, as in Reference Example 2, a proteasome inhibitory activity of TMP-CANDDY_ALLN and an affinity of TMP-CANDDY_ALLN with a proteasome were evaluated.

[3] = target: T2, catalytic subunit β2 of the proteasome (trypsin-like activity) (Homo sapiens, UniProt Q99436); assay: 20S Proteasome StressXpress Assay Kit, AMC substrate, β2; assay type: biochemical
T2 construct: purchased Bioscience
Procedure: as §1, §2, §3

[4] = tested on: ecDHFR protein (fusion protein of an ecDHFR protein and GFP through a HA tag); assay type: cell-based, human; settings: HeLa cells, 24 hours after addition, vs DMSO control
[5] = target: T3, catalytic subunit β1 of a proteasome (caspase-like activity) (Homo sapiens, UniProt P28072); assay: 20S Proteasome StressXpress Assay Kit, AMC substrate, β1; assay type: biochemical
T3 construct: purchased Bioscience
Procedure: as §1, §2, §3

[6] = tested on: ecDHFR protein (fusion protein of an ecDHFR protein and GFP through a HA tag); assay: Western blot of degradation of forcibly expressed ecDHFR protein in HeLa cells; assay type: cell-based, human
[7] = target: T4, 20S proteasome (Homo sapiens, UniProt P28072+P28074+Q99436); assay: Affinity with a proteasome, evaluated from the 20S proteasome activity assay; assay type: biochemical; settings: concluded from the concentration dependent inhibitory activity
T4 construct: purchased Bioscience
Procedure: as §1, §2, §3

[8] = target: T3, catalytic subunit β1 of a proteasome (caspase-like activity); settings: reported by Kaiser et al., Chem. Bio. Chem., 2004; cited from earlier work

COc1cccc2c1C(=O)c1c(O)c3c(c(O)c1C2=O)C[C@@](O)(C(=O)CO)C[C@@H]3O[C@H]1C[C@H](N)[C@H](O)[C@H](C)O1 [doxorubicin, reference compound]
shift to SA-β-gal (senescence marker) positive (FACS histogram) [1]: a shift to SA-β-gal (senescence marker) positive was observed

COc1nc(NCCCCCCNC(=O)COc2c(OC)cc(Cc3cnc(N)nc3N)cc2OC)nc(OC)n1 [TMP-CANDDY_DMT]
concentration dependence of inhibitory activity against β5 [2]: increased in a concentration dependent manner
proteasome inhibitory activity against β5 compared with the reference proteasome inhibitor [2]: significantly lower proteasome inhibitory activity as compared with MG-132
concentration dependence of inhibitory activity against β2 [3]: increased in a concentration dependent manner
proteasome inhibitory activity against β2 compared with the reference proteasome inhibitor [3]: significantly lower proteasome inhibitory activity as compared with MG-132
degradation (knockdown) of the ecDHFR protein (shift of GFP/DsRed graph, FACS) [4]: degradation of the ecDHFR protein was induced
concentration dependence of inhibitory activity against β1 [5]: increased in a concentration dependent manner
proteasome inhibitory activity against β1 compared with the reference proteasome inhibitor [5]: significantly lower proteasome inhibitory activity as compared with MG-132
amount of the ecDHFR protein (Western blot) ([6]; 24 hours after addition, cycloheximide 50 μg/mL added at 12 hours): reduced
degradation of the ecDHFR protein when bortezomib is added as well ([6]; both TMP-CANDDY_DMT and bortezomib added, compared with TMP-CANDDY_DMT alone): degradation of the ecDHFR protein was inhibited
affinity with a proteasome [7]: moderate affinity

CCCC[C@@H](C=O)NC(=O)[C@H](CC(C)C)NC(=O)[C@H](CC(C)C)NC(C)=O [ALLN, Calpain Inhibitor I] (Ac-Leu-Leu-[Nle]-aldehyde)
inhibition of β1 [8]: not inhibited

CCCC[C@H](NC(=O)[C@H](CC(C)C)NC(=O)[C@H](CC(C)C)NC(C)=O)C(=O)NCCCCCCNC(=O)COc1c(OC)cc(Cc2cnc(N)nc2N)cc1OC [TMP-CANDDY_ALLN]
concentration dependence of inhibitory activity against β5 [2]: in a concentration dependent manner
proteasome inhibitory activity against β5 compared with the reference proteasome inhibitor [2]: the inhibitory activity was weakened
concentration dependence of inhibitory activity against β2 [3]: in a concentration dependent manner
proteasome inhibitory activity against β2 compared with the reference proteasome inhibitor [3]: the inhibitory activity was weakened
degradation (knockdown) of the ecDHFR protein (shift of GFP/DsRed graph, FACS) [4]: degradation of the ecDHFR protein was induced
concentration dependence of inhibitory activity against β1 [5]: in a concentration dependent manner
affinity with a proteasome [7]: had an affinity with a proteasome
